{"source": "patent US9556207B2", "about": "“Pyrazole compounds, compositions and methods for treatment of degenerative diseases and disorders” (MUSC FOUNDATION FOR RESEARCH DEVELOPMENT, priority 2013, dated 2017)", "key": {"661W or C6 cells [1]": {"test_system": "661W or C6 cells", "assay": "MTT assay (protection against calcium-ionophore A23187)", "assay_type": "cell-based", "conditions": "for percent protection against ionophore-induced loss of MTT signal at 0.0008 µM: 800 pM compound; for percent protection against ionophore-induced loss of MTT signal at 0.001 µM: 1 nM compound; for percent protection against ionophore-induced loss of MTT signal at 0.01 µM: 10 nM compound", "method": "The compound 3-(4,5-Dimethylthiazol-2-yl)-2,5-diphenyltetrazolium bromide (MTT) is a tetrazolium ion that is reduced to a blue formazan dye via several families of NAD(P)H-dependent oxidoreductases. Formation of the formazan dye from MTT or other related tetrazolium dyes are commonly used as a viability assay even though, in fact, the assay is a metabolic capacity assay.\nIn this assay, 661W or C6 cells were maintained in DMEM supplemented with 10% FBS. 100 μL of 70,000 cells/mL cells were seeded into each well of 96 well plates using DMEM supplemented with 5% FBS. Cells were then allowed to grow to confluency for 48 hours. The compounds of the invention were added in 2 μL media and calcium-ionophore A23187 was then added in 1 μL for a final concentration of 1 μM and after 24 h, 20 uL of 2 μg/mL MTT were added to each well and the cells were incubated for another 4 h after which 100 μL of 1% SDS in 0.01 M aqueous HCl were added to each well and the plates were incubated overnight. Absorbance was measured at […] (background correction). The 1 μM ionophore A23187 caused about 50% loss in MTT signal at 24 h. Protection was calculated as the increase in absorbance of treatment groups normalized to the vehicle control."}, "661W or C6 cells [2]": {"test_system": "661W or C6 cells", "assay": "XF FCCP-uncoupled oxygen consumption rate assay (IBMX challenge)", "assay_type": "cell-based", "conditions": "24 h; for activity at 0.1 µM: 100 nM compound; for activity at 0.01 µM: 10 nM compound", "method": "XF FCCP-Uncoupled Oxygen Consumption Rate Assay\nThe XF FCCP-uncoupled oxygen consumption rate assay assesses mitochondrial capacity by measuring cellular respiration. It was shown that the maximum FCCP-uncoupled oxygen consumption rate (OCR) was a good estimate of maximal mitochondrial capacity (Beeson 2010) and that IBMX treatment of 661W or C6 cells for 24 h caused a loss in maximal uncoupled OCR (Perron 2013). Thus, cells were pretreated with the exemplified compounds for 1 h, added 600 μM IBMX and then measured the uncoupled rate after 24 h. The OCR measurements were performed using a Seahorse Bioscience XF instrument (Seahorse Bioscience, Billerica, Md.), as previously published (Perron 2013). O2 leakage through the plastic sides and bottom of the plate was accounted for using the AKOS algorithm in the XF software package. Cells were plated on 96- or 24-well custom plates designed for use in the XF and grown to confluency in DMEM+5% FBS (48 h). The medium was then replaced with DMEM+1% FBS for 24 h, along with any treatments."}, "[3]": {"test_system": "rd1 mouse retinal explants (photoreceptors)", "assay": "Retinal degeneration assay (rd1 mouse retina organ cultures)", "assay_type": "cell-based", "conditions": "explants cultured 11 days, rows of photoreceptors in ONL", "from_the_text": "Retinal Degeneration Assay\nIt was reasoned that the compounds' activities would enable them to protect against loss of photoreceptors in retinal degenerative animal models. As a translational bridge between the cell line-based assays and in vivo animal studies, mouse retina organ cultures were utilized. These retinal explants were a powerful ex vivo screening tool, which allowed the testing of photoreceptor cell survival within the retinal network, and the effects of a specific compound were tested like in an in vitro system, without systemic interference. In this assay, the rd1 mouse was utilized. The genotype of the rd1 mouse has a mutation in the β-subunit of the phosphodiesterase gene. […] The genetic deficit and the retinal pathology were very similar to that observed in the patients with βPDE-dependent RP. In these mice, rod photoreceptor degeneration started after postnatal day 10 (P10), progressing rapidly, such that at P21, only 1-2 rows of photoreceptor remained, mainly representing cones. Finally, the rd1 mouse retina was amenable to culturing, replicating both retinal development and degeneration, following the same time course as in vivo. […] At the end of the experiments, tissues were fixed, sectioned and stained with 0.1% toluidine and the numbers of rows of photoreceptors remaining in the outer nuclear layer (ONL) were counted."}, "[4]": {"test_system": "Balb/c mice photoreceptors", "assay": "Light model assay (constant light damage, eyedrops)", "assay_type": "in vivo, mouse", "conditions": "125 μM eyedrops once per day; continuous light 7 days; assessed 10 days after onset", "from_the_text": "The light model assay is generally accepted as a model of age related macular degeneration (AMD). […] In particular, oxidative damage has been detected by immunohistochemistry, detecting the presence of oxidized and tyrosine-phosphorylated proteins as well as the upregulation of endogenous antioxidants such as thioredoxin and glutathione peroxidase. […] Additional indirect evidence for the involvement of oxidative stress in photoreceptor degeneration has been provided by treatment of photodamaged retinas with antioxidants such as dimethylthiourea, or the treatment of N-methyl-N-nitrosourea (MNU)-challenged rats with the antioxidant DHA.\nThe light model assay was used to further test the therapeutic potential of the compounds of the invention. Photoreceptors from albino animals are very sensitive to constant light, lacking the RPE pigment to protect them. Thus, Balb/c mice were exposed to continuous light for 7 days, which caused loss of about 50% of the photoreceptor cells as measured via histology. To test the potential therapeutic efficacy, eyedrops were formulated in 0.1% Bij 35 in […], applied once or twice daily throughout the period of light exposure, and assessed their effect on the light-induced degeneration of photoreceptor cells morphologically and electrophysiologically, 10 days after the onset of the CL exposure."}, "[5]": {"conditions": "1 μM A23187, 24 h, read-out: MTT Protection(%, concentration)"}, "[6]": {"conditions": "1 h pretreatment, 600 μM IBMX, read-out: XF FCCP OCR (% Ctrl, concentration)"}}}
{"compound": "CCOC(=O)c1cc(-c2ccccn2)nn1CC(=O)c1ccc(OC)cc1OC", "note": "[Example 1, Ethyl 1-(2-(2,4-dimethoxyphenyl)-2-oxoethyl)-3-(pyridin-2-yl)-1H-pyrazole-5-carboxylate]", "values": [{"measurement": "percent protection against ionophore-induced loss of MTT signal at 0.0008 µM", "setting": "661W or C6 cells [1]; [5]", "value": 10.4, "unit": "%"}, {"measurement": "activity at 1 µM", "setting": "661W or C6 cells [2]; 1 uM compound, 1 h pretreatment, 600 μM IBMX, read-out: XF FCCP OCR (% Ctrl, concentration)", "value": 58, "unit": "%"}]}
{"compound": "CCOC(=O)c1cc(-c2ccccn2)n(CC(=O)c2ccc(OC)cc2OC)n1", "note": "[Example 2, Ethyl 1-(2-(2,4-dimethoxyphenyl)-2-oxoethyl)-5-(pyridin-2-yl)-1H-pyrazole-3-carboxylate]", "values": [{"measurement": "percent protection against ionophore-induced loss of MTT signal at 0.0008 µM", "setting": "661W or C6 cells [1]; [5]", "value": 73.9, "unit": "%"}, {"measurement": "activity at 0.1 µM", "setting": "661W or C6 cells [2]; [6]", "value": 62, "unit": "%"}, {"measurement": "rd1 protection (concentration, # of rows)", "setting": "[3]; 20 nM", "value": "20 nM 4.46 # of rows"}]}
{"compound": "CCOC(=O)c1cc(-c2cccnc2)nn1CC(=O)c1cc(OC)ccc1OC", "note": "[Example 3, Ethyl 1-(2-(2,5-dimethoxyphenyl)-2-oxoethyl)-3-(pyridin-3-yl)-1H-pyrazole-5-carboxylate]", "values": [{"measurement": "percent protection against ionophore-induced loss of MTT signal at 0.001 µM", "setting": "661W or C6 cells [1]; [5]", "value": 43.5, "unit": "%"}]}
{"compound": "CCOC(=O)c1cc([Si](C)(C)C)nn1CC(=O)c1ccc(OC)cc1OC", "note": "[Example 4, Ethyl 1-(2-(2,4-dimethoxyphenyl)-2-oxoethyl)-3-(trimethylsilyl)-1H-pyrazole-5-carboxylate]", "values": [{"measurement": "percent protection against ionophore-induced loss of MTT signal at 0.01 µM", "setting": "661W or C6 cells [1]; [5]", "value": 87, "unit": "%"}, {"measurement": "activity at 0.01 µM", "setting": "661W or C6 cells [2]; [6]", "value": 67, "unit": "%"}, {"measurement": "LD Protection (concentration, # of rows)", "setting": "[4]", "value": "125 μM 6.42 # of rows"}, {"measurement": "rd1 protection (concentration, # of rows)", "setting": "[3]; 10 nM", "value": "10 nM 3.2 # of rows"}]}
{"compound": "CCOC(=O)c1cc([Si](C)(C)C)nn1CC(=O)c1cc(OC)ccc1OC", "note": "[Example 5, Ethyl 1-(2-(2,5-dimethoxyphenyl)-2-oxoethyl)-3-(trimethylsilyl)-1H-pyrazole-5-carboxylate]", "values": [{"measurement": "percent protection against ionophore-induced loss of MTT signal at 0.01 µM", "setting": "661W or C6 cells [1]; [5]", "value": 76.6, "unit": "%"}, {"measurement": "activity at 0.01 µM", "setting": "661W or C6 cells [2]; [6]", "value": 72, "unit": "%"}]}
{"compound": "CCOC(=O)c1cc(-c2ccccn2)nn1Cc1cccnc1", "note": "[Example 6, Ethyl 3-(pyridin-2-yl)-1-(pyridin-3-ylmethyl)-1H-pyrazole-5-carboxylate]", "values": [{"measurement": "percent protection against ionophore-induced loss of MTT signal at 0.01 µM", "setting": "661W or C6 cells [1]; [5]", "value": 73.5, "unit": "%"}, {"measurement": "activity at 0.01 µM", "setting": "661W or C6 cells [2]; [6]", "value": 75, "unit": "%"}]}
{"compound": "CCOC(=O)c1cc([Si](C)(C)C)nn1Cc1cc(OC)c(OC)c(OC)c1", "note": "[Example 7, Ethyl 1-(3,4,5-trimethoxybenzyl)-3-(trimethylsilyl)-1H-pyrazole-5-carboxylate]", "values": [{"measurement": "percent protection against ionophore-induced loss of MTT signal at 0.01 µM", "setting": "661W or C6 cells [1]; [5]", "value": 40, "unit": "%"}]}
{"compound": "CCOC(=O)c1cc(-c2cccnc2)nn1CC(=O)c1ccc(OC)cc1OC", "note": "[Example 8, Ethyl 1-(2-(2,4-dimethoxyphenyl)-2-oxoethyl)-3-(pyridin-3-yl)-1H-pyrazole-5-carboxylate]", "values": [{"measurement": "percent protection against ionophore-induced loss of MTT signal at 0.001 µM", "setting": "661W or C6 cells [1]; [5]", "value": 75.6, "unit": "%"}, {"measurement": "activity at 0.1 µM", "setting": "661W or C6 cells [2]; [6]", "value": 64, "unit": "%"}]}
{"compound": "CCOC(=O)c1cc([Si](C)(C)C)n(CC(=O)c2cccnc2)n1", "note": "[Example 9, Ethyl 1-(2-oxo-2-(pyridin-3-yl)ethyl)-5-(trimethylsilyl)-1H-pyrazole-3-carboxylate]", "values": [{"measurement": "percent protection against ionophore-induced loss of MTT signal at 0.001 µM", "setting": "661W or C6 cells [1]; [5]", "value": 59, "unit": "%"}, {"measurement": "activity at 0.1 µM", "setting": "661W or C6 cells [2]; [6]", "value": 67, "unit": "%"}]}
{"compound": "CCOC(=O)c1cc([Si](C)(C)C)nn1CC(=O)c1cccnc1", "note": "[Example 10, Ethyl 1-(2-oxo-2-(pyridin-3-yl)ethyl)-3-(trimethylsilyl)-1H-pyrazole-5-carboxylate]", "values": [{"measurement": "percent protection against ionophore-induced loss of MTT signal at 0.001 µM", "setting": "661W or C6 cells [1]; [5]", "value": 47.8, "unit": "%"}]}
{"compound": "CCOC(=O)c1cc(-c2ccccn2)nn1CC(=O)c1cc(OC)ccc1OC", "note": "[Example 11, Ethyl 1-(2-(2,5-dimethoxyphenyl)-2-oxoethyl)-3-(pyridin-2-yl)-1H-pyrazole-5-carboxylate]", "values": [{"measurement": "percent protection against ionophore-induced loss of MTT signal at 1 µM", "setting": "661W or C6 cells [1]; 1 μM compound, 1 μM A23187, 24 h, read-out: MTT Protection(%, concentration)", "value": 28.3, "unit": "%"}]}
{"compound": "CCOC(=O)c1cc(C(C)C)nn1Cc1c[nH]c2ccccc12", "note": "[Example 12, Ethyl 1-((1H-indol-3-yl)methyl)-3-isopropyl-1H-pyrazole-5-carboxylate]", "values": [{"measurement": "percent protection against ionophore-induced loss of MTT signal at 0.001 µM", "setting": "661W or C6 cells [1]; [5]", "value": 59.4, "unit": "%"}]}
{"compound": "CNc1ccc2oc(C[C@H]3O[C@@]4(CC[C@H]3C)O[C@H]([C@H](C)C(=O)c3ccc[nH]3)[C@H](C)C[C@H]4C)nc2c1C(=O)O", "note": "[Example A23187, reference compound]", "values": [{"measurement": "loss in MTT signal", "setting": "661W or C6 cells [1]; 1 μM ionophore alone, 24 h", "value": "about 50%"}]}
{"compound": "CC(C)Cn1c(=O)n(C)c(=O)c2[nH]cnc21", "note": "[IBMX, reference compound]", "values": [{"measurement": "decrease in the uncoupled rate (OCR)", "setting": "661W or C6 cells [2]; IBMX treatment alone, 600 μM", "value": "~50", "unit": "%"}]}
